In paper PMC10478600, “Aryl derivatives of 3H-1,2-benzoxaphosphepine 2-oxides as inhibitors of cancer-related carbonic anhydrase isoforms IX and XII” (Journal of Enzyme Inhibition and Medicinal Chemistry, 2023):

Key:
CA I [1] = target: T1, CA I (Homo sapiens, UniProt P00915); assay: stopped-flow CO2 hydrase assay; format: biochemical; settings: read-out: KI (μM)^a^,^b / CA I
T1 construct: gene CA1; recombinant
Source text: stopped-flow CO2 hydrase assay on CA I

CA II [2] = target: T2, CA II (Homo sapiens, UniProt P00918); assay: stopped-flow CO2 hydrase assay; format: biochemical; settings: read-out: KI (μM)^a^,^b / CA I
T2 construct: gene CA2; recombinant
Source text: stopped-flow CO2 hydrase assay on CA II

CA I [3] = target: T1, CA I; assay: biochemical; set-up: stopped-flow CO2 hydration assay of recombinant human CA isoforms, inhibition constant; settings: 6 h incubation
Procedure: (§1) The CA-catalysed CO2 hydration activity was assayed by using an applied photophysics stopped-flow apparatus as reported in previous papers from our group. All CA isoforms were recombinant proteins, obtained as reported earlier. The newly synthesised compounds 7–10 were investigated for their CA inhibition activity against four pharmacologically relevant human CA isoforms—the ubiquitous cytosolic CA I and II as well as the cancer-associated CA IX and XII. In this study, CA I and CA II are considered off-target isoforms, that were tested in order to explore the selectivity of inhibitors towards the CA IX and CA XII isoforms. The clinically utilised acetazolamide (AAZ) was used as a reference drug. The following structure-activity relationship (SAR) can be deduced from the inhibition data reported in Table 1: It is worthwhile to underline here that a 6-h incubation of the enzyme and each compound 7–10 solutions is essential. When the incubation period of 15 min was used for assaying the inhibition, as generally done for the other types of CA inhibitors, only a weak inhibition was observed (data not shown). Furthermore, it appears to be the case with coumarins and related bioisosteres. […]

CA II [4] = target: T2, CA II; assay: biochemical; set-up: stopped-flow CO2 hydration assay of recombinant human CA isoforms, inhibition constant; settings: 6 h incubation
Procedure: as §1

T1 sequence (P00915 2-261): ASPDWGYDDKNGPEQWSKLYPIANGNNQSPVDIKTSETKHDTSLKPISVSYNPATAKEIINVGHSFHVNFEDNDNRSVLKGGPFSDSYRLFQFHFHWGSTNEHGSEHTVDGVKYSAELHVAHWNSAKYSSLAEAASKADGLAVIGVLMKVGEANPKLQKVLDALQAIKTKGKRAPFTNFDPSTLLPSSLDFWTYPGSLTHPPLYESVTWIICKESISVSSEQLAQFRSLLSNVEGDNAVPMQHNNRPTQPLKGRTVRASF

Compound | Ki (CA I [1]) [µM] | Ki (CA II [2]) [µM] | other results
CCOC(=O)c1ccc(-c2ccc3c(c2)C=CCP(=O)(O)O3)cc1 [8c, Ethyl 4–(2-hydroxy-2-oxido-3H-benzo[f][1,2]oxaphosphepin-7-yl)benzoate] | > 100 | > 100 | –
COc1ccc(-c2ccc3c(c2)OP(=O)(O)CC=C3)cc1 [9b, 2-Hydroxy-8–(4-methoxyphenyl)-3H-benzo[f][1,2]oxaphosphepine 2-oxide] | > 100 | > 100 | –
O=[N+]([O-])c1ccccc1-c1cccc2c1OP(=O)(O)CC=C2 [10f, 2-Hydroxy-9–(2-nitrophenyl)-3H-benzo[f][1,2]oxaphosphepine 2-oxide] | > 100 | > 100 | –
O=P1(O)CC=Cc2cc(-c3cccc(F)c3)ccc2O1 [8h, 7-(3-Fluorophenyl)-2-hydroxy-3H-benzo[f][1,2]oxaphosphepine 2-oxide] | – | – | Ki (CA I [3]): > 100 µM; Ki (CA II [4]): > 100 µM
COc1ccc(-c2ccc3c(c2)C=CCP(=O)(O)O3)cc1 [8b, 2-Hydroxy-7–(4-methoxyphenyl)-3H-benzo[f][1,2]oxaphosphepine 2-oxide] | > 100 | > 100 | –
2-Hydroxy-7-(o-tolyl)-3H-benzo[f][1,2]oxaphosphepine 2-oxide [8i] | – | – | Ki (CA I [1]; […] h incubation): > 100 µM; Ki (CA II [2]; […] h incubation): > 100 µM
O=[N+]([O-])c1ccccc1-c1ccc2c(c1)OP(=O)(O)CC=C2 [9f, 2-Hydroxy-8–(2-nitrophenyl)-3H-benzo[f][1,2]oxaphosphepine 2-oxide] | > 100 | > 100 | –
CCOC(=O)c1ccc(-c2cccc3c2OP(=O)(O)CC=C3)cc1 [10c, Ethyl 4–(2-hydroxy-2-oxido-3H-benzo[f][1,2]oxaphosphepin-9-yl)benzoate] | > 100 | > 100 | –
O=P1(O)CC=Cc2ccc(-c3ccc(Cl)cc3)cc2O1 [9d, 8–(4-Chlorophenyl)-2-hydroxy-3H-benzo[f][1,2]oxaphosphepine 2-oxide] | > 100 | > 100 | –
O=P1(O)CC=Cc2cc(-c3ccc(Cl)cc3)ccc2O1 [8e, 7–(4-Chlorophenyl)-2-hydroxy-3H-benzo[f][1,2]oxaphosphepine 2-oxide] | > 100 | > 100 | –
O=P1(O)CC=Cc2ccc(Br)cc2O1 [7b, 8-Bromo-2-hydroxy-3H-benzo[f][1,2]oxaphosphepine 2-oxide] | > 100 | > 100 | –
O=P1(O)CC=Cc2cccc(-c3ccccc3)c2O1 [10a, 2-Hydroxy-9-phenyl-3H-benzo[f][1,2]oxaphosphepine 2-oxide] | > 100 | > 100 | –
O=P1(O)CC=Cc2cc(-c3ccccc3)ccc2O1 [8a, 2-Hydroxy-7-phenyl-3H-benzo[f][1,2]oxaphosphepine 2-oxide] | > 100 | > 100 | –
O=P1(O)CC=Cc2cc(-c3ccc(C(F)(F)F)cc3)ccc2O1 [8f, 2-Hydroxy-7–(4-(trifluoromethyl)phenyl)-3H-benzo[f][1,2]oxaphosphepine 2-oxide] | > 100 | > 100 | –
O=P1(O)CC=Cc2cccc(-c3cc(Cl)cc(Cl)c3)c2O1 [10e, 9–(3,5-Dichlorophenyl)-2-hydroxy-3H-benzo[f][1,2]oxaphosphepine 2-oxide] | > 100 | > 100 | –
CCOC(=O)c1ccc(-c2ccc3c(c2)OP(=O)(O)CC=C3)cc1 [9c, Ethyl 4–(2-hydroxy-2-oxido-3H-benzo[f][1,2]oxaphosphepin-8-yl)benzoate] | > 100 | > 100 | –
COC(=O)c1cccc(-c2ccc3c(c2)C=CCP(=O)(O)O3)c1 [8j, Methyl 3–(2-hydroxy-2-oxido-3H-benzo[f][1,2]oxaphosphepin-7-yl)benzoate] | > 100 | > 100 | –
O=[N+]([O-])c1cccc(-c2ccc3c(c2)C=CCP(=O)(O)O3)c1 [8k, 2-Hydroxy-7–(3-nitrophenyl)-3H-benzo[f][1,2]oxaphosphepine 2-oxide] | > 100 | > 100 | –
O=P1(O)CC=Cc2cc(-c3cc(Cl)cc(Cl)c3)ccc2O1 [8g, 7–(3,5-Dichlorophenyl)-2-hydroxy-3H-benzo[f][1,2]oxaphosphepine 2-oxide] | > 100 | > 100 | –
O=P1(O)CC=Cc2cc(-c3ccc(F)cc3)ccc2O1 [8d, 7–(4-Fluorophenyl)-2-hydroxy-3H-benzo[f][1,2]oxaphosphepine 2-oxide] | > 100 | > 100 | –
CC(C)(C)c1ccc(-c2ccc3c(c2)C=CCP(=O)(O)O3)cc1 [8l, 7–(4-(tert-Butyl)phenyl)-2-hydroxy-3H-benzo[f][1,2]oxaphosphepine 2-oxide] | > 100 | > 100 | –
7–(3-Fluorophenyl)-2-hydroxy-3H-benzo[f][1,2]oxaphosphepine 2-oxide [8h] | – | – | Ki (CA I [1]; 6 h incubation): > 100 µM; Ki (CA II [2]; 6 h incubation): > 100 µM
COc1ccc(-c2cccc3c2OP(=O)(O)CC=C3)cc1 [10b, 2-Hydroxy-9–(4-methoxyphenyl)-3H-benzo[f][1,2]oxaphosphepine 2-oxide] | > 100 | > 100 | –
O=P1(O)CC=Cc2ccc(-c3cc(Cl)cc(Cl)c3)cc2O1 [9e, 8–(3,5-Dichlorophenyl)-2-hydroxy-3H-benzo[f][1,2]oxaphosphepine 2-oxide] | > 100 | > 100 | –
O=P1(O)CC=Cc2cccc(-c3ccc(Cl)cc3)c2O1 [10d, 9–(4-Chlorophenyl)-2-hydroxy-3H-benzo[f][1,2]oxaphosphepine 2-oxide] | > 100 | > 100 | –
O=P1(O)CC=Cc2ccc(-c3ccccc3)cc2O1 [9a, 2-Hydroxy-8-phenyl-3H-benzo[f][1,2]oxaphosphepine 2-oxide] | > 100 | > 100 | –
